This is an account of results in patent US20170015666A1, “ENHANCER OF ZESTE HOMOLOG 2 INHIBITORS” (GLAXOSMITHKLINE INTELLECTUAL PROPERTY (NO.2) LIMITED, priority 2014, published 2017).

SMILES strings stand for the structures.

The target in this experiment is T1, EZH2 within the PRC2 complex (Homo sapiens, UniProt Q15910).
T1 construct: FLAG; made in house; host or cells: Sf9 cells
T1 sequence (Q15910 whole entry): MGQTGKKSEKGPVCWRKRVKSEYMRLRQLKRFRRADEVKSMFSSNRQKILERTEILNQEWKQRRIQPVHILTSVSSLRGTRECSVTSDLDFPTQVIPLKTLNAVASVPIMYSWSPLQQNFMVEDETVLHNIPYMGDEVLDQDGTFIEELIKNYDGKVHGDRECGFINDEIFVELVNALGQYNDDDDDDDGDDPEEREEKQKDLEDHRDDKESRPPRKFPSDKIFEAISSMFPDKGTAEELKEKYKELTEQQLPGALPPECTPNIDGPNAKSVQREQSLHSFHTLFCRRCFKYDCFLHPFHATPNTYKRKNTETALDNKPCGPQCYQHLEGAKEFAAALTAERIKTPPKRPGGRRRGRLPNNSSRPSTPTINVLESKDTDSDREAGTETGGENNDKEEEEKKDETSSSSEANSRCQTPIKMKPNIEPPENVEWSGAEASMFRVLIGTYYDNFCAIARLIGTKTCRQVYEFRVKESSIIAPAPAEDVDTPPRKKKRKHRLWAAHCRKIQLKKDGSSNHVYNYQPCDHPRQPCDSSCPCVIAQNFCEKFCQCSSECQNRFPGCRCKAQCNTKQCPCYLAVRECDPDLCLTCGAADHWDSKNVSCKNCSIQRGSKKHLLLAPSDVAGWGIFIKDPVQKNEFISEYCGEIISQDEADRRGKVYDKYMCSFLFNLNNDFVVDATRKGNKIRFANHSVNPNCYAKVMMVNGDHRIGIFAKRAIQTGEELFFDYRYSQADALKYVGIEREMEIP
T1 sequence (O75530 whole entry partner): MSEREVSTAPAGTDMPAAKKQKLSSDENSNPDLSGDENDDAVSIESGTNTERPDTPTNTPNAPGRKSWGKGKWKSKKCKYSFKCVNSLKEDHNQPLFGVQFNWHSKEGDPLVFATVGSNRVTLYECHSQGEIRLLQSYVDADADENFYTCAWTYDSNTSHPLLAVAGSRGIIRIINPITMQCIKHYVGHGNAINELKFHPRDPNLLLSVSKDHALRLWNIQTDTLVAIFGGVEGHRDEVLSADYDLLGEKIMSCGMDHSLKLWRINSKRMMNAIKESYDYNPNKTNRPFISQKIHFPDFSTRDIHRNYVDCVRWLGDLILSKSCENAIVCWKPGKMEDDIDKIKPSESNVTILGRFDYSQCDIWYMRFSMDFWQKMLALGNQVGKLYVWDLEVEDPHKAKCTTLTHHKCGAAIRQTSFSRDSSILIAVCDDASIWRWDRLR
T1 sequence (Q15022 whole entry partner): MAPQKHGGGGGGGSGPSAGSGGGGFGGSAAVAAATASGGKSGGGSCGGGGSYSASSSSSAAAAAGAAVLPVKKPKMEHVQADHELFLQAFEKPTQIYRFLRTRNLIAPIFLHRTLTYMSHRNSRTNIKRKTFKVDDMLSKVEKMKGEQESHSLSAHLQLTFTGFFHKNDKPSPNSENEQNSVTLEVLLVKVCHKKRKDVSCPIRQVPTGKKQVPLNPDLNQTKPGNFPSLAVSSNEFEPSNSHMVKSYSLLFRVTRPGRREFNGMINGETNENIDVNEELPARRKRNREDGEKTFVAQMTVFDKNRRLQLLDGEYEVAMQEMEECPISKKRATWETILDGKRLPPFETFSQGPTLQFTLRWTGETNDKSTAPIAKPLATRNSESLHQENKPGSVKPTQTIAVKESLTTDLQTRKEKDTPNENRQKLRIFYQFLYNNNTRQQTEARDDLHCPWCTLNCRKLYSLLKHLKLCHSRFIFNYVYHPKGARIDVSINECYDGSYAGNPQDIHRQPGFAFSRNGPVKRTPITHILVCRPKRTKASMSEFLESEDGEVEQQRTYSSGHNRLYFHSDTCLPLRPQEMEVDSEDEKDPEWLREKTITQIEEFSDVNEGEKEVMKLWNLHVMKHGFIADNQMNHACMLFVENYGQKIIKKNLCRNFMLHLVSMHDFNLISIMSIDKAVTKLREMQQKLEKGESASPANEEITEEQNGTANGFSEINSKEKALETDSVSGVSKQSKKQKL
T1 sequence (Q09028 whole entry partner): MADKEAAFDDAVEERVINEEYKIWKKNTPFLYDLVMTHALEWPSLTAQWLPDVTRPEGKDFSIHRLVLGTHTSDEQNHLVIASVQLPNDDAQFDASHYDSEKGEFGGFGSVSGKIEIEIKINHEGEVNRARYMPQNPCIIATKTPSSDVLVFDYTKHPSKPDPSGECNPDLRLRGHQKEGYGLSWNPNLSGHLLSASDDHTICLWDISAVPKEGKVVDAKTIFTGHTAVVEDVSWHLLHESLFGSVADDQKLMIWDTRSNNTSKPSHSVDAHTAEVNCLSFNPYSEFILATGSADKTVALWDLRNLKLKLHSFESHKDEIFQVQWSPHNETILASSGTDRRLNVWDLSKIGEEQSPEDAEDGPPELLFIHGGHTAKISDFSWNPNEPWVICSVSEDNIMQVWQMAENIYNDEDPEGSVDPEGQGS
T1 sequence (Q6ZN18 whole entry partner): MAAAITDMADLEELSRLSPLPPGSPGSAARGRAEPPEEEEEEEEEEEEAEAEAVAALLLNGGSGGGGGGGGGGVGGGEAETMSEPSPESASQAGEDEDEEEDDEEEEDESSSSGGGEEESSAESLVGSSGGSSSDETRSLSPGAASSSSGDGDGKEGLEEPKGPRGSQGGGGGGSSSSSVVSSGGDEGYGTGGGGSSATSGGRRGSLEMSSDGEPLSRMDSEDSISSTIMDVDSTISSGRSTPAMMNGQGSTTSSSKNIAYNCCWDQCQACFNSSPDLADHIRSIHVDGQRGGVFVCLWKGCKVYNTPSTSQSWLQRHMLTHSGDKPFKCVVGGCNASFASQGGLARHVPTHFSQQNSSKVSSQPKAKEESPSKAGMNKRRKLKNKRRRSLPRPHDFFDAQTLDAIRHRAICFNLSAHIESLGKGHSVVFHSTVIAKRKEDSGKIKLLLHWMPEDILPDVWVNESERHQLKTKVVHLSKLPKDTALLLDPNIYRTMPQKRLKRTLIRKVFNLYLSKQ
Briefly: EZH2 methyltransferase scintillation proximity assay (SPA) with PRC2 complex. Format: biochemical. The following applies: 3H-SAM, HeLa mononucleosome substrate, 30 min preincubation, 1 hour reaction.
The molecule `Cc1cc2c(c(=O)[nH]1)CNC(=O)c1cc(Cl)cc3c1c(cn3C(C)C)C/C=C/CC2` [Example 1, (E)-2-chloro-4-isopropyl-12-methyl-9,10,15,16-tetrahydro-4H-pyrido[4′,3′:11,12][1]azacyclotridecino[5,4,3-cd]indole-14,17(6H,13H)-dione] displayed an IC50 of 40 nM. That is a double-digit nanomolar value. With `Cc1cc2c(c(=O)[nH]1)CNC(=O)c1cc(Cl)cc3c1c(cn3C(C)C)C/C=C\CC2` [Example 2, (Z)-2-chloro-4-isopropyl-12-methyl-9,10,15,16-tetrahydro-4H-pyrido[4′,3′:11,12][1]azacyclotridecino[5,4,3-cd]indole-14,17(6H,13H)-dione] the figure was 316 nM; with `Cc1cc2c(c(=O)[nH]1)CNC(=O)c1cc(Cl)cc3c1c(cn3C(C)C)CCCCC2` [Example 3, 2-chloro-4-isopropyl-12-methyl-7,8,9,10,15,16-hexahydro-4H-pyrido[4′,3′:11,12][1]azacyclotridecino[5,4,3-cd]indole-14,17(6H,13H)-dione], 500 nM; with `Cc1cc2c(c(=O)[nH]1)CNC(=O)c1cc(-c3ccc(N4CCNCC4)nc3)cc3c1c(cn3C(C)C)C/C=C/CC2` [Example 4, (E)-4-isopropyl-12-methyl-2-(6-(piperazin-1-yl)pyridin-3-yl)-9,10,15,16-tetrahydro-4H-pyrido[4′,3′:11,12][1]azacyclotridecino[5,4,3-cd]indole-14,17(6H,13H)-dione], 32 nM. With `Cc1cc2c(c(=O)[nH]1)CNC(=O)c1cc(C#N)cc3c1c(cn3C(C)C)C/C=C/CC2` [Example 5, (E)-4-isopropyl-12-methyl-14,17-dioxo-6,9,10,13,14,15,16,17-octahydro-4H-pyrido[4′,3′:11,12][1]azacyclotridecino[5,4,3-cd]indole-2-carbonitrile] the figure was 158 nM; with `Cc1cc2c(c(=O)[nH]1)CNC(=O)c1cc(C#CC(C)(C)O)cc3c1c(cn3C(C)C)C/C=C/CC2` [Example 6, (E)-2-(3-hydroxy-3-methylbut-1-yn-1-yl)-4-isopropyl-12-methyl-9,10,15,16-tetrahydro-4H-pyrido[4′,3′:11,12][1]azacyclotridecino[5,4,3-cd]indole-14,17(6H,13H)-dione], 200 nM.
